Measured values published in BindingDB's records for doi:10.1016/j.bmc.2007.07.016 (Waseda University, 2007).

Target: T1, Ubiquitin carboxyl-terminal hydrolase isozyme L3 (Homo sapiens, UniProt P15374)
T1 sequence (P15374 whole entry): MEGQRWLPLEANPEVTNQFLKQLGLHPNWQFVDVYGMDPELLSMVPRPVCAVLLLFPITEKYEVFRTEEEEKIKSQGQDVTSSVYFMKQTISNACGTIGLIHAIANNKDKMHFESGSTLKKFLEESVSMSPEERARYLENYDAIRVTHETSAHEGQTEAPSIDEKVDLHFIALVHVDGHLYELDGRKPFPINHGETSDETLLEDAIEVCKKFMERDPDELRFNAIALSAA
Test: Enzyme Inhibition Assay
Conditions: pH 7.8; 22 °C
Method: Enzyme reactions were carried out on Costar 96-well black assay plates. After the reaction, AMC fluorescence (excitation wavelength: 355 nm, emission wavelength: 460 nm) was subsequently measured 40 times every 3 s with a Wallac 1420 multi-label counter. Initial velocities (from 0 to 30 s) were used for IC50 determination, using GraphPad Prism 4 software.

Row | SMILES | IC50
1 | COc1ccc(C2C(C(=O)c3cccs3)C(=O)C(=O)N2c2nncs2)cc1 (stereo not drawn) | 154 µM
2 | Cc1ccc(C(=O)C2C(=O)C(=O)N(Cc3ccccc3)C2c2cccnc2)o1 (stereo not drawn) [1-benzyl-3-hydroxy-4-[(5-methylfuran-2-yl)carbonyl]-5-(pyridin-3-yl)-2,5-dihydro-1H-pyrrol-2-one] | 103 µM
3 | COc1cccc(N(CC(=O)NC2CCCC2)S(=O)(=O)c2ccccc2)c1 [2-[benzene(3-methoxyphenyl)sulfonamido]-N-cyclopentylacetamide] | > 386 µM
4 | Nc1nc(CSc2nnc(-c3ccco3)n2-c2ccccc2)cs1 [4-({[5-(furan-2-yl)-4-phenyl-4H-1,2,4-triazol-3-yl]sulfanyl}methyl)-1,3-thiazol-2-amine] | > 387 µM
5 | Cc1ccc(C(=O)C2C(=O)C(=O)N(Cc3cccnc3)C2c2ccc(F)cc2)o1 (stereo not drawn) [5-(4-fluorophenyl)-3-hydroxy-4-[(5-methylfuran-2-yl)carbonyl]-1-(pyridin-3-ylmethyl)-2,5-dihydro-1H-pyrrol-2-one] | 123 µM
6 | COc1ccc(S(=O)(=O)N(CC(=O)NC2CC2)c2ccc(C)cc2)cc1 [N-cyclopropyl-2-[(4-methoxybenzene)(4-methylphenyl)sulfonamido]acetamide] | > 401 µM
7 | COc1ccc(N(CC(=O)NC2CC2)S(=O)(=O)c2ccc(C)cc2)cc1 [N-cyclopropyl-2-[(4-methoxyphenyl)(4-methylbenzene)sulfonamido]acetamide] | > 334 µM
8 | CCS(=O)(=O)Nc1cccc(C2=NN(C(C)=O)C(c3cccs3)C2)c1 (stereo not drawn) [N-{3-[1-acetyl-5-(thiophen-2-yl)-4,5-dihydro-1H-pyrazol-3-yl]phenyl}ethane-1-sulfonamide] | > 331 µM
